Data: PubChem BioAssay (NCI)
Values joined by “and” are separate entries in the source; they are usually repeats but may differ in a detail not shown here. Identical values can stand only once.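 Test compounds were applied to cells in 96-well plates for 48 hours at 5 doses. GI50 marks 50% less growth. Definition used: TGI = concentration required for complete inhibition of growth.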

Key:
Test in all cases: inhibition of tumour cell growth, NCI panel, 48 h
HCC-2998 colon = test system: HCC-2998 colon
UO-31 renal = test system: UO-31 renal
KM12 colon = test system: KM12 colon
OVCAR-3 ovarian = test system: OVCAR-3 ovarian
SK-MEL-2 melanoma = test system: SK-MEL-2 melanoma
UACC-257 melanoma = test system: UACC-257 melanoma
SF-268 CNS = test system: SF-268 CNS
PC-3 prostate = test system: PC-3 prostate
DU-145 prostate = test system: DU-145 prostate
MDA-N = test system: MDA-N

SMILES | TGI (HCC-2998 colon) | TGI (UO-31 renal) | TGI (KM12 colon) | TGI (OVCAR-3 ovarian) | TGI (SK-MEL-2 melanoma) | TGI (UACC-257 melanoma) | TGI (SF-268 CNS) | TGI (PC-3 prostate) | TGI (DU-145 prostate) | TGI (MDA-N) | GI50 (UACC-257 melanoma) | GI50 (SF-268 CNS) | GI50 (PC-3 prostate) | GI50 (MDA-N)
COc1ccc(-n2c(=O)c3[nH]c(=S)[nH]c3n(-c3ccc(OC)cc3)c2=S)cc1 | > 100 µM | > 100 µM | > 100 µM | > 100 µM | > 100 µM | > 100 µM | > 100 µM | > 100 µM | > 100 µM |  |  |  |  | 
O=C(CCN1CCOCC1)/C(=C/c1ccccc1)c1ccccc1 | 28.3 µM | 28.1 µM | 16.5 µM | 13.5 µM | 21.5 µM | 9.72 µM | 19 µM |  |  |  |  |  |  | 
Cc1cc(C)c2c(c1)CC1(Cc3cc(C)c(C)cc3C1=O)C2=O (stereo not given) | > 100 µM | > 100 µM | > 100 µM | > 100 µM | > 100 µM | > 100 µM | > 100 µM | > 100 µM | > 100 µM |  |  |  |  | 
CSC(SC)=C(C#N)C(=O)Nc1cccc(Cl)c1 | > 100 µM |  | > 100 µM |  | > 100 µM | > 100 µM | > 100 µM | > 100 µM |  | > 100 µM |  |  |  | 
O=C1NC(=O)c2ccccc2/C1=C/c1ccc2c(c1)OCO2 | 38.9 µM | 32.4 µM | 41 µM | 25 µM | 61.4 µM | 55.3 µM | 82.1 µM |  | > 100 µM | > 100 µM |  |  |  | 
CC(C(=O)OCc1ccccc1)N(Cc1ccccc1)Cc1ccccc1 (stereo not given) | > 100 µM | > 100 µM | > 100 µM | > 100 µM | > 100 µM | > 100 µM | > 100 µM |  |  |  |  |  |  | 
O=C(O)CCC(=O)OCN1C(=O)C2C3C=CC(C2C1=O)C1C2C(=O)N(COC(=O)CCC(=O)O)C(=O)C2C31 (stereo not given) | > 100 µM | > 100 µM | > 100 µM | > 100 µM | > 100 µM | > 100 µM | > 100 µM |  |  |  |  |  |  | 
N#Cc1nc2cc(Cl)ccc2nc1N1CCN(c2ccc([N+](=O)[O-])cc2)CC1 | > 100 µM | > 100 µM | > 100 µM | > 100 µM |  | > 100 µM | > 100 µM | > 100 µM | > 100 µM | > 100 µM |  |  |  | 
Cc1ccc(S(=O)(=O)NC(CCC(=O)NNc2ccccc2)C(=O)NNc2ccccc2)cc1 (stereo not given) |  | > 100 µM | > 100 µM | > 100 µM | 83.2 µM | > 100 µM | > 100 µM | > 100 µM |  | > 100 µM |  |  |  | 
O=c1[nH]c(=O)n(C2CC(O)C(CO)O2)cc1Oc1ccccc1 (stereo not given) |  | > 100 µM | > 100 µM | > 100 µM |  | > 100 µM | > 100 µM | > 100 µM | > 100 µM | > 100 µM |  |  |  | 
CC(C)(C)c1ccc(C(O)CCCN2CCC(C(O)(c3ccccc3)c3ccccc3)CC2)cc1 (stereo not given) |  |  |  |  |  | 2.85 µM and 18.2 µM | 2.92 µM |  |  | 42.6 µM | 1.4 µM and 13.2 µM | 1.57 µM | 1.61 µM | 23.7 µM
C1=NCCNCCNCCN=Cc2ccc(cc2)OCc2cccc(n2)COc2ccc1cc2 |  | > 100 µM | > 100 µM | > 100 µM | > 100 µM | > 100 µM | > 100 µM | > 100 µM | > 100 µM | > 100 µM |  |  |  | 
Cc1cc2[nH]c3c(C#N)c(-c4ccccc4)c(N=Nc4ccc(F)cc4)c(=O)n3c2cc1C | > 100 µM | > 100 µM |  | 39.8 µM | > 100 µM | > 100 µM | > 100 µM | > 100 µM |  | > 100 µM |  |  |  | 
CN(Cc1cnc2nc(N)nc(N)c2n1)c1ccc(C(=O)NC23CC4CC(CC(C4)C2)C3)cc1 |  | 24.1 µM | 24.8 µM | 30.5 µM | 23.6 µM | 25.6 µM | 22.7 µM | 19 µM | 38.1 µM |  |  |  |  | 
CCOC(=O)c1ccc(Nc2nc3ccccc3nc2-c2cccs2)cc1 | 77.7 µM | > 100 µM | > 100 µM | > 100 µM |  | > 100 µM | > 100 µM | > 100 µM | > 100 µM | > 100 µM |  |  |  | 
COc1ccccc1OCC(COC(=O)Nc1ccccc1)OC(=O)Nc1ccccc1 (stereo not given) | > 100 µM | > 100 µM | > 100 µM | > 100 µM | 67.6 µM | > 100 µM | > 100 µM |  |  |  |  |  |  | 
FC(F)(F)c1cc(N(C2c3ccccc3C=Cc3ccccc32)P(Cl)Cl)cc(C(F)(F)F)c1 |  | 33.4 µM | 49.4 µM | 31.1 µM | 37 µM | 39.9 µM | 33.8 µM | 78.1 µM | 40.3 µM | 76.9 µM |  |  |  | 
O=P1(N2CCOCC2)OCCO1 | > 100 µM | > 100 µM | > 100 µM |  |  | > 100 µM | > 100 µM | > 100 µM | > 100 µM | > 100 µM |  |  |  | 
